Consider 18 compounds from US6653478B2, “Substituted benzimidazol-2-ones as vasopressin receptor antagonists and neuropeptide Y modulators” (Ortho-McNeil Pharmaceutical, Inc., priority 2000, dated 2003).

Each structure is given as a SMILES string. “And” between values parts separate entries of the source, which are not always exact repeats. Identical values can stand only once.

Assay [1] concerns the target human V2 receptor (Homo sapiens, UniProt P30518). In words: V2 binding assay (3H-AVP displacement, HEK-293 membranes). Particulars: 1.0 μM compound; read-out: V2@1.0, % Inh. Details: expressed in transfected cells; host or cells: HEK-293 (membranes). In a few lines:
(§1)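 Each well: membranes, test compound (from 10% DMSO working stock), 3H-AVP. Buffer pH 7.5 with 0.1% BSA and protease inhibitors; 1 h, room temperature. Non-specific binding: 1.25 μM AVP. Filter, wash, count.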

Assay [2] addresses T1, NPY2 receptors (Homo sapiens, UniProt P49146).
T1 construct: Cell Membranes from KAN-TS cells having NPY2 receptors; endogenous in cells; host or cells: KAN-TS cells (membranes)
T1 sequence (P49146 1-381): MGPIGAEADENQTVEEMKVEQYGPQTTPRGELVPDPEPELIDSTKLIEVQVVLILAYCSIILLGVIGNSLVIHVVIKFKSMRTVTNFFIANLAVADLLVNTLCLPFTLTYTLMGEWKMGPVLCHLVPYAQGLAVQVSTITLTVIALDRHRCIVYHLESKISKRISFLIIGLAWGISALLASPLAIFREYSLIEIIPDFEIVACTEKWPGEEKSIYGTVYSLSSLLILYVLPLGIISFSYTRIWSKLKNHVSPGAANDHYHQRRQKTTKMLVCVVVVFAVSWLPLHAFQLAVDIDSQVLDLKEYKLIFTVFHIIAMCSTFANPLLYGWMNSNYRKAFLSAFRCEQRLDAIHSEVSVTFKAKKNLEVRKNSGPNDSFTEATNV
The experiment in a line: Neuropeptide Y receptor binding assay (125I-PYY, KAN-TS cell membranes). Particulars: 10 μM compound; read-out: NPY-2@10, % Inh. A digest of the protocol:
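Membranes from KAN-TS cells competed with 125I-PYY in binding buffer containing BSA, test compound at 10 μM final, 1 hr at room temperature. Nonspecific binding defined with 1 μM PYY final. Tubes centrifuged, washed with PBS and bound radioactivity gamma-counted.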

In assay [3] the target is T2, human V1b receptor (Homo sapiens, UniProt P47901).
T2 sequence (P47901 1-424): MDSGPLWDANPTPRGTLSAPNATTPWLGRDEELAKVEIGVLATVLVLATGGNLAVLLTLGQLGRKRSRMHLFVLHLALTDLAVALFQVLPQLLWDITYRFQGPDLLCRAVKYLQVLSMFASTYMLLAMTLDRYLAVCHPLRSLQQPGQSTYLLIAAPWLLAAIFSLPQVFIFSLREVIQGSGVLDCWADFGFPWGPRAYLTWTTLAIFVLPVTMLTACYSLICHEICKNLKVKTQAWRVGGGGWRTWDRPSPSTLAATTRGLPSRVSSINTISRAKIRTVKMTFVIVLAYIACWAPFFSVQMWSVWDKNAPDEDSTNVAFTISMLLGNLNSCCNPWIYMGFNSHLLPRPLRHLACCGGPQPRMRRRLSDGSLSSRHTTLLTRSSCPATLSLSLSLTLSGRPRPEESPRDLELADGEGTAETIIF
The experiment in a line: V1b binding assay (3H-AVP displacement, HEK-293 membranes). The following applies: 1.0 μM compound; read-out: V1b@1.0, % Inh. Details: expressed in transfected cells; host or cells: HEK-293 (membranes). In a few lines: as §1

In assay [4] the target is human V1a receptor (Homo sapiens, UniProt P37288). In words: V1a binding assay (3H-AVP displacement, HEK-293 membranes). Details: expressed in transfected cells; host or cells: HEK-293 (membranes). Particulars: for inhibition at 1 µM: 1.0 μM compound, read-out: V1a@1.0, % Inh. In a few lines: as §1
Sequence of human V1a receptor (P37288 whole entry): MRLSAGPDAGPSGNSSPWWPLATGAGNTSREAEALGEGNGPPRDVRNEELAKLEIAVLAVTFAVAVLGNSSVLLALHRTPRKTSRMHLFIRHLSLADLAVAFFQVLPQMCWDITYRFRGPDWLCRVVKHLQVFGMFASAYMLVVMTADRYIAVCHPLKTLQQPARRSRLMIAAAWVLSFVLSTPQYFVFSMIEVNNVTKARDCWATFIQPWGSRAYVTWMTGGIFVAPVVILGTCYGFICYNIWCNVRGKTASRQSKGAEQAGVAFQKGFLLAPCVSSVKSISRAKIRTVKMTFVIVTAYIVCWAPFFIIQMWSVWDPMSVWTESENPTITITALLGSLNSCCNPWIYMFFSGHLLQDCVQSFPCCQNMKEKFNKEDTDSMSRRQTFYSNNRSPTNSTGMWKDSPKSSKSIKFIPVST

Sequence of human V2 receptor (P30518 whole entry): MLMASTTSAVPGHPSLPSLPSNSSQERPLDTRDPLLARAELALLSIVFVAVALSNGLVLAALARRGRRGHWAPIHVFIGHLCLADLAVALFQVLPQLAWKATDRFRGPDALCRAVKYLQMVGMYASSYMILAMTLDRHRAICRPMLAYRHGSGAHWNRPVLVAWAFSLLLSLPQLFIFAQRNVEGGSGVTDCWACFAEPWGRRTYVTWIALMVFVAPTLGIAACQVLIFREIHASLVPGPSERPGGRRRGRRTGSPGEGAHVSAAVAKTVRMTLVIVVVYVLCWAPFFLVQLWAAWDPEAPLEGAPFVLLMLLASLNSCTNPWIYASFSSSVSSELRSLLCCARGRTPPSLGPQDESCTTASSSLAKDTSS

The IC50 is the concentration that gives 50% inhibition. Turning to `CC1CCN(CCCn2c(=O)n(C3CCN(C(=O)NC(c4ccccc4)c4ccccc4)CC3)c3ccccc32)CC1` [Compound 99, 1-[(N1-piperidinocarbonylbiphenylmethylamino)-4-yl]-3-(4-methylpiperidin-1-yl-propyl)-1,3-dihydrobenzimidazol-2-one], the inhibition at 1 µM is 16% in assay [1] and 46% in assay [3]. Moreover, the inhibition at 10 µM in assay [2] is 29%. In assay [4], this compound returned an IC50 of 126 nM.
On the same counts, the results for `CN1CCN(CCCn2c(=O)n(C3CCN(C(=O)NC(c4ccccc4)c4ccccc4)CC3)c3ccccc32)CC1` [Compound 100, 1-[(N1-piperidinocarbonylbiphenylmethylamino)-4-yl]-3-(3-N-(N-Methylpiperazino)propyl)-1,3-dihydrobenzimidazol-2-one] are 24%, 36%, 6% and 283 nM.
In the same order, the values of `CC1CC(C)CN(CCCn2c(=O)n(C3CCN(C(=O)NC(c4ccccc4)c4ccccc4)CC3)c3ccccc32)C1` (stereo not drawn) [Compound 101] are 0%, 43%, 21% and 14 nM.
On the same counts, the results for `O=C(NC(c1ccccc1)c1ccccc1)N1CCC(n2c(=O)n(CCCN3CC=CC3)c3ccccc32)CC1` [Compound 102] are 6%, 41%, 23% and 123 nM.
Take `O=c1n(CCCCN2CCCC2)c2ccccc2n1C1CCN(C(=S)NC(c2ccccc2)c2ccccc2)CC1` [Compound 104]: the inhibition at 1 µM came out at 14% in assay [1] and 48% in assay [3]. Also, the inhibition at 10 µM in assay [2] stood at 96%. Further, the IC50 in assay [4] was determined as 18 nM.
As for `O=c1n(CCCN2CCCCC2)c2ccccc2n1C1CCN(C(=S)NCc2ccccc2)CC1` [Compound 105, 1-[(N1-piperidinocarbothioylbenzylamino)-4-yl]-3-(3-N-piperidinylpropyl)-1,3-dihydrobenzimidazol-2-one], the inhibition at 1 µM is 0% in assay [1], 30% in assay [3] and 58% in assay [4]. Further, in assay [2], the inhibition at 10 µM was 12%. Moreover, the IC50 in assay [4] amounted to 188 nM.
Turning to `O=C(NCc1ccccc1)N1CCC(n2c(=O)n(CCCN3CCCCC3)c3ccccc32)CC1` [Compound 106, 1-[(N1-piperidinocarbonybenzylamino)-4-yl]-3-(3-N-piperidinylpropyl)-1,3-dihydrobenzimidazol-2-one], the inhibition at 1 µM stood at 2% in assay [1], 32% in assay [3] and 56% in assay [4]. In assay [2], the inhibition at 10 µM came to 0%.
Take `O=c1n(CCCCN2CCCCC2)c2ccccc2n1C1CCN(C(=S)NC(c2ccccc2)c2ccccc2)CC1` [Compound 107]: the inhibition at 1 µM in assay [1] was found to be 12%; in assay [3], 45%. Also, the inhibition at 10 µM in assay [2] is 95%. Further, the IC50 in assay [4] worked out at 22 nM.
In the same order, the values of `O=c1n(CCCO)c2ccccc2n1C1CCN(C(=S)NC(c2ccccc2)c2ccccc2)CC1` [Compound 108, 1-[(N1-piperidinocarbothioylbiphenylmethylamino)-4-yl]-3-(3-hydroxypropyl)-1,3-dihydrobenzimidazol-2-one] are 16%, 37%, 41% and 579 nM.
On the same counts, the results for `Cc1ccccc1NC(=S)N1CCC(n2c(=O)n(CCCN3CCCCC3)c3ccccc32)CC1` [Compound 109, 1-[(N1-piperidinocarbothioyl-2-methylphenylamino)-4-yl]-3-(3-N-piperidinylpropyl)-1,3-dihydrobenzimidazol-2-one] are 0%, 14%, 58% and 56 nM.
`Cc1ccccc1NC(=O)N1CCC(n2c(=O)n(CCCN3CCCCC3)c3ccccc32)CC1` [Compound 110, 1-[(N1-piperidinocarbonyl-2-methylphenylamino)-4-yl]-3-(3-N-piperidinylpropyl)-1,3-dihydrobenzimidazol-2-one]: the inhibition at 1 µM was found to be 2% in assay [1], 19% in assay [3] and 41% in assay [4]. Further, the inhibition at 10 µM in assay [2] was 0%.
Consider `COc1ccccc1CNC(=S)N1CCC(n2c(=O)n(CCCN3CCCCC3)c3ccccc32)CC1` [Compound 111, 1-[(N1-piperidinocarbothioyl-2-methoxybenzylamino)-4-yl]-3-(3-N-piperidinylpropyl)-1,3-dihydrobenzimidazol-2-one], for which the inhibition at 1 µM in assay [1] is 0%; in assay [3] it was 30%. In addition, the inhibition at 10 µM in assay [2] was 31%. In addition, the IC50 in assay [4] was 109 nM and 56 nM.
For `O=c1n(CCCN2CCCCC2)c2ccccc2n1C1CCN(C(=S)NCc2cccc3ccccc23)CC1` [Compound 112, 1-[(N1-piperidinocarbothioyl-1-naphthalmethylamino)-4-yl]-3-(3-N-piperidinylpropyl)-1,3-dihydrobenzimidazol-2-one], the inhibition at 1 µM in assay [1] was 0%; in assay [3], 32%. The inhibition at 10 µM in assay [2] came out at 55%. In assay [4], this compound had an IC50 of 139 nM.
Take `CC1CCN(CCCn2c(=O)n(C3CCN(C(=S)NC(c4ccccc4)c4ccccc4)CC3)c3ccccc32)CC1` [Compound 113, 1-[(N1-piperidinocarbothioylbiphenylmethylamino)-4-yl]-3-(4-methylpiperidin-1-yl-propyl)-1,3-dihydrobenzimidazol-2-one]: the inhibition at 1 µM in assay [1] was 7%; in assay [3], 47%; in assay [4] it was 70%. In addition, the inhibition at 10 µM in assay [2] is 89%. The compound further yielded an IC50 in assay [4] of 23 nM.
`O=C(Nc1ccccc1F)N1CCC(n2c(=O)n(CCCN3CCCCC3)c3ccccc32)CC1` [Compound 114, 1-[(N1-piperidinocarbonyl-2-fluorophenylamino)-4-yl]-3-(3-N-piperidinylpropyl)-1,3-dihydrobenzimidazol-2-one]: the values for the inhibition at 1 µM in assay [1], in assay [3] and in assay [4] were 2%, 4% and 1%, respectively. In assay [2], the inhibition at 10 µM was determined as 17%.
`O=c1n(CCCN2CCCCC2)c2ccccc2n1C1CCN(C(=S)Nc2ccccc2F)CC1` [Compound 115, 1-[(N1-piperidinocarbonthioyl-2-fluorophenylamino)-4-yl]-3-(3-N-piperidinylpropyl)-1,3-dihydrobenzimidazol-2-one]: the inhibition at 1 µM in assay [1] amounted to 11%; in assay [3], 20%; in assay [4], 13%. Besides, in assay [2], the inhibition at 10 µM was determined as 26%.
For the compound `C[C@H](NC(=S)N1CCC(n2c(=O)n(CCCN3CCCCC3)c3ccccc32)CC1)c1ccccc1` [Compound 116, 1-[(N1-piperidinocarbonthioyl-R-(−)-alpha-methylbenzylamino)-4-yl]-3-(3-N-piperidinylpropyl)-1,3-dihydrobenzimidazol-2-one], the values for the inhibition at 1 µM in assay [1], in assay [3] and in assay [4] were 18%, 47% and 85%, respectively. Further, the inhibition at 10 µM in assay [2] came to 25%.
As for `CCCc1ccccc1NC(=O)N1CCC(n2c(=O)n(CCCN3CCCCC3)c3ccccc32)CC1` [Compound 117, 1-[(N1-piperidinocarbonyl-2-propylphenylamino)-4-yl]-3-(3-N-piperidinylpropyl)-1,3-dihydrobenzimidazol-2-one], the inhibition at 1 µM in assay [1] amounted to 15%; in assay [3] it was 43%; in assay [4], 68%. Moreover, the inhibition at 10 µM in assay [2] amounted to 1%. This compound gave an IC50 in assay [4] of 331 nM.
